Assay results: ChEMBL document CHEMBL5724914, “Linking interpersonal differences in gut microbiota composition and drug biotransformation activity” (2024)

Conditions: human gut metagenome, 24 h, 2 µM
Also: call rule not given here.

Row | Bacterial Biotransformation | SMILES
1 | Compound NOT metabolized | CCCN(CCC)CCc1cccc2c1CC(=O)N2 [ROPINIROLE]
2 | Compound metabolized | CN[C@H]1CC[C@@H](c2ccc(Cl)c(Cl)c2)c2ccccc21 [SERTRALINE]

Row | SMILES | Bacterial Biotransformation
3 | O=C(O)CCC(=O)O.O=C(O[C@H]1CN2CCC1CC2)N1CCc2ccccc2[C@@H]1c1ccccc1 [SOLIFENACIN SUCCINATE] | Compound NOT metabolized

Conditions: human gut metagenome, 24 h, 2 µM
Remark: another data set of the same source

Row | Bacterial Biotransformation | SMILES
4 | Compound metabolized | CCCN(CCC)CCc1cccc2c1CC(=O)N2 [ROPINIROLE]
5 | Compound metabolized | CN[C@H]1CC[C@@H](c2ccc(Cl)c(Cl)c2)c2ccccc21 [SERTRALINE]

Row | SMILES | Bacterial Biotransformation
6 | O=C(O)CCC(=O)O.O=C(O[C@H]1CN2CCC1CC2)N1CCc2ccccc2[C@@H]1c1ccccc1 [SOLIFENACIN SUCCINATE] | Compound metabolized

Experiment: (§1) The drug is tested on Z-027 corresponding to metagenome with ENA study accession number: PRJEB37062 and ENA sample accession number: ERS12561826 for biotransformation under anaerobic condition. The drug concentrations were measured over 9 timepoints collected between 0 and 24 hours of incubation by liquid-chromatography-coupled mass spectrometry (LC–MS)
Conditions: 2 µM

Row | Bacterial Biotransformation | SMILES
7 | Compound NOT metabolized | CCCN(CCC)CCc1cccc2c1CC(=O)N2 [ROPINIROLE]
8 | Compound metabolized | CN[C@H]1CC[C@@H](c2ccc(Cl)c(Cl)c2)c2ccccc21 [SERTRALINE]

Row | SMILES | Bacterial Biotransformation
9 | O=C(O)CCC(=O)O.O=C(O[C@H]1CN2CCC1CC2)N1CCc2ccccc2[C@@H]1c1ccccc1 [SOLIFENACIN SUCCINATE] | Compound NOT metabolized

Experiment: (§2) The drug is tested on Z-011 corresponding to mouse gut metagenome with ENA study accession number: PRJEB37062 and ENA sample accession number: ERS12561811 for biotransformation under anaerobic condition. The drug concentrations were measured over 9 timepoints collected between 0 and 24 hours of incubation by liquid-chromatography-coupled mass spectrometry (LC–MS)
Conditions: 2 µM

Row | Bacterial Biotransformation | SMILES
10 | Compound NOT metabolized | CCCN(CCC)CCc1cccc2c1CC(=O)N2 [ROPINIROLE]
11 | Compound metabolized | CN[C@H]1CC[C@@H](c2ccc(Cl)c(Cl)c2)c2ccccc21 [SERTRALINE]

Row | SMILES | Bacterial Biotransformation
12 | O=C(O)CCC(=O)O.O=C(O[C@H]1CN2CCC1CC2)N1CCc2ccccc2[C@@H]1c1ccccc1 [SOLIFENACIN SUCCINATE] | Compound NOT metabolized

Conditions: human gut metagenome, 24 h, 2 µM
Remark: another data set of the same source

Row | Bacterial Biotransformation | SMILES
13 | Compound NOT metabolized | CCCN(CCC)CCc1cccc2c1CC(=O)N2 [ROPINIROLE]
14 | Compound NOT metabolized | CN[C@H]1CC[C@@H](c2ccc(Cl)c(Cl)c2)c2ccccc21 [SERTRALINE]

Row | SMILES | Bacterial Biotransformation
15 | O=C(O)CCC(=O)O.O=C(O[C@H]1CN2CCC1CC2)N1CCc2ccccc2[C@@H]1c1ccccc1 [SOLIFENACIN SUCCINATE] | Compound NOT metabolized

Conditions: human gut metagenome, 24 h, 2 µM
Remark: another data set of the same source

Row | Bacterial Biotransformation | SMILES
16 | Compound metabolized | CCCN(CCC)CCc1cccc2c1CC(=O)N2 [ROPINIROLE]
17 | Compound NOT metabolized | CN[C@H]1CC[C@@H](c2ccc(Cl)c(Cl)c2)c2ccccc21 [SERTRALINE]

Row | SMILES | Bacterial Biotransformation
18 | O=C(O)CCC(=O)O.O=C(O[C@H]1CN2CCC1CC2)N1CCc2ccccc2[C@@H]1c1ccccc1 [SOLIFENACIN SUCCINATE] | Compound NOT metabolized

Conditions: human gut metagenome, 24 h, 2 µM
Remark: another data set of the same source

Row | Bacterial Biotransformation | SMILES
19 | Compound NOT metabolized | CCCN(CCC)CCc1cccc2c1CC(=O)N2 [ROPINIROLE]
20 | Compound NOT metabolized | CN[C@H]1CC[C@@H](c2ccc(Cl)c(Cl)c2)c2ccccc21 [SERTRALINE]

Row | SMILES | Bacterial Biotransformation
21 | O=C(O)CCC(=O)O.O=C(O[C@H]1CN2CCC1CC2)N1CCc2ccccc2[C@@H]1c1ccccc1 [SOLIFENACIN SUCCINATE] | Compound metabolized

Conditions: human gut metagenome, 24 h, 2 µM
Remark: another data set of the same source

Row | Bacterial Biotransformation | SMILES
22 | Compound NOT metabolized | CCCN(CCC)CCc1cccc2c1CC(=O)N2 [ROPINIROLE]
23 | Compound NOT metabolized | CN[C@H]1CC[C@@H](c2ccc(Cl)c(Cl)c2)c2ccccc21 [SERTRALINE]

Row | SMILES | Bacterial Biotransformation
24 | O=C(O)CCC(=O)O.O=C(O[C@H]1CN2CCC1CC2)N1CCc2ccccc2[C@@H]1c1ccccc1 [SOLIFENACIN SUCCINATE] | Compound NOT metabolized

Experiment: as §2, with “Z-016” for “Z-011”, “ERS12561815” for “ERS12561811”
Conditions: 2 µM

Row | Bacterial Biotransformation | SMILES
25 | Compound NOT metabolized | CCCN(CCC)CCc1cccc2c1CC(=O)N2 [ROPINIROLE]
26 | Compound NOT metabolized | CN[C@H]1CC[C@@H](c2ccc(Cl)c(Cl)c2)c2ccccc21 [SERTRALINE]

Row | SMILES | Bacterial Biotransformation
27 | O=C(O)CCC(=O)O.O=C(O[C@H]1CN2CCC1CC2)N1CCc2ccccc2[C@@H]1c1ccccc1 [SOLIFENACIN SUCCINATE] | Compound NOT metabolized

Conditions: human gut metagenome, 24 h, 2 µM
Remark: another data set of the same source

Row | Bacterial Biotransformation | SMILES
28 | Compound NOT metabolized | CCCN(CCC)CCc1cccc2c1CC(=O)N2 [ROPINIROLE]
29 | Compound metabolized | CN[C@H]1CC[C@@H](c2ccc(Cl)c(Cl)c2)c2ccccc21 [SERTRALINE]

Row | SMILES | Bacterial Biotransformation
30 | O=C(O)CCC(=O)O.O=C(O[C@H]1CN2CCC1CC2)N1CCc2ccccc2[C@@H]1c1ccccc1 [SOLIFENACIN SUCCINATE] | Compound metabolized

Conditions: human gut metagenome, 24 h, 2 µM
Remark: another data set of the same source

Row | Bacterial Biotransformation | SMILES
31 | Compound NOT metabolized | CCCN(CCC)CCc1cccc2c1CC(=O)N2 [ROPINIROLE]
32 | Compound metabolized | CN[C@H]1CC[C@@H](c2ccc(Cl)c(Cl)c2)c2ccccc21 [SERTRALINE]

Row | SMILES | Bacterial Biotransformation
33 | O=C(O)CCC(=O)O.O=C(O[C@H]1CN2CCC1CC2)N1CCc2ccccc2[C@@H]1c1ccccc1 [SOLIFENACIN SUCCINATE] | Compound NOT metabolized

Experiment: as §2, with “WLS-098” for “Z-011”, “human” for “mouse”, “ERS12561754” for “ERS12561811”
Conditions: 2 µM

Row | Bacterial Biotransformation | SMILES
34 | Compound metabolized | CCCN(CCC)CCc1cccc2c1CC(=O)N2 [ROPINIROLE]
35 | Compound metabolized | CN[C@H]1CC[C@@H](c2ccc(Cl)c(Cl)c2)c2ccccc21 [SERTRALINE]

Row | SMILES | Bacterial Biotransformation
36 | O=C(O)CCC(=O)O.O=C(O[C@H]1CN2CCC1CC2)N1CCc2ccccc2[C@@H]1c1ccccc1 [SOLIFENACIN SUCCINATE] | Compound metabolized

Experiment: as §2, with “WLS-069” for “Z-011”, “human” for “mouse”, “ERS12561748” for “ERS12561811”
Conditions: 2 µM

Row | Bacterial Biotransformation | SMILES
37 | Compound NOT metabolized | CCCN(CCC)CCc1cccc2c1CC(=O)N2 [ROPINIROLE]
38 | Compound metabolized | CN[C@H]1CC[C@@H](c2ccc(Cl)c(Cl)c2)c2ccccc21 [SERTRALINE]

Row | SMILES | Bacterial Biotransformation
39 | O=C(O)CCC(=O)O.O=C(O[C@H]1CN2CCC1CC2)N1CCc2ccccc2[C@@H]1c1ccccc1 [SOLIFENACIN SUCCINATE] | Compound metabolized

Experiment: as §1, with “Z-012” for “Z-027”, “ERS12561812” for “ERS12561826”
Conditions: 2 µM

Row | Bacterial Biotransformation | SMILES
40 | Compound metabolized | CCCN(CCC)CCc1cccc2c1CC(=O)N2 [ROPINIROLE]
41 | Compound metabolized | CN[C@H]1CC[C@@H](c2ccc(Cl)c(Cl)c2)c2ccccc21 [SERTRALINE]

Row | SMILES | Bacterial Biotransformation
42 | O=C(O)CCC(=O)O.O=C(O[C@H]1CN2CCC1CC2)N1CCc2ccccc2[C@@H]1c1ccccc1 [SOLIFENACIN SUCCINATE] | Compound metabolized

Experiment: as §2, with “WLS-240” for “Z-011”, “human” for “mouse”, “ERS12561773” for “ERS12561811”
Conditions: 2 µM

Row | Bacterial Biotransformation | SMILES
43 | Compound NOT metabolized | CCCN(CCC)CCc1cccc2c1CC(=O)N2 [ROPINIROLE]
44 | Compound NOT metabolized | CN[C@H]1CC[C@@H](c2ccc(Cl)c(Cl)c2)c2ccccc21 [SERTRALINE]

Row | SMILES | Bacterial Biotransformation
45 | O=C(O)CCC(=O)O.O=C(O[C@H]1CN2CCC1CC2)N1CCc2ccccc2[C@@H]1c1ccccc1 [SOLIFENACIN SUCCINATE] | Compound metabolized

Experiment: as §2, with “Z-002” for “Z-011”, “rabbit” for “mouse”, “ERS12561802” for “ERS12561811”
Conditions: 2 µM

Row | Bacterial Biotransformation | SMILES
46 | Compound metabolized | CCCN(CCC)CCc1cccc2c1CC(=O)N2 [ROPINIROLE]
47 | Compound NOT metabolized | CN[C@H]1CC[C@@H](c2ccc(Cl)c(Cl)c2)c2ccccc21 [SERTRALINE]

Row | SMILES | Bacterial Biotransformation
48 | O=C(O)CCC(=O)O.O=C(O[C@H]1CN2CCC1CC2)N1CCc2ccccc2[C@@H]1c1ccccc1 [SOLIFENACIN SUCCINATE] | Compound metabolized

Experiment: as §2, with “Z-024” for “Z-011”, “pig” for “mouse”, “ERS12561823” for “ERS12561811”
Conditions: 2 µM

Row | Bacterial Biotransformation | SMILES
49 | Compound NOT metabolized | CCCN(CCC)CCc1cccc2c1CC(=O)N2 [ROPINIROLE]
50 | Compound metabolized | CN[C@H]1CC[C@@H](c2ccc(Cl)c(Cl)c2)c2ccccc21 [SERTRALINE]

Row | SMILES | Bacterial Biotransformation
51 | O=C(O)CCC(=O)O.O=C(O[C@H]1CN2CCC1CC2)N1CCc2ccccc2[C@@H]1c1ccccc1 [SOLIFENACIN SUCCINATE] | Compound metabolized

Experiment: as §2, with “WLS-038” for “Z-011”, “human” for “mouse”, “ERS12561745” for “ERS12561811”
Conditions: 2 µM

Row | Bacterial Biotransformation | SMILES
52 | Compound NOT metabolized | CCCN(CCC)CCc1cccc2c1CC(=O)N2 [ROPINIROLE]
53 | Compound metabolized | CN[C@H]1CC[C@@H](c2ccc(Cl)c(Cl)c2)c2ccccc21 [SERTRALINE]

Row | SMILES | Bacterial Biotransformation
54 | O=C(O)CCC(=O)O.O=C(O[C@H]1CN2CCC1CC2)N1CCc2ccccc2[C@@H]1c1ccccc1 [SOLIFENACIN SUCCINATE] | Compound metabolized

Conditions: human gut metagenome, 24 h, 2 µM
Remark: another data set of the same source

Row | Bacterial Biotransformation | SMILES
55 | Compound NOT metabolized | CCCN(CCC)CCc1cccc2c1CC(=O)N2 [ROPINIROLE]
56 | Compound NOT metabolized | CN[C@H]1CC[C@@H](c2ccc(Cl)c(Cl)c2)c2ccccc21 [SERTRALINE]

Row | SMILES | Bacterial Biotransformation
57 | O=C(O)CCC(=O)O.O=C(O[C@H]1CN2CCC1CC2)N1CCc2ccccc2[C@@H]1c1ccccc1 [SOLIFENACIN SUCCINATE] | Compound metabolized

Experiment: as §2, with “Z-029” for “Z-011”, “rat” for “mouse”, “ERS12561828” for “ERS12561811”
Conditions: 2 µM

Row | Bacterial Biotransformation | SMILES
58 | Compound NOT metabolized | CCCN(CCC)CCc1cccc2c1CC(=O)N2 [ROPINIROLE]
59 | Compound NOT metabolized | CN[C@H]1CC[C@@H](c2ccc(Cl)c(Cl)c2)c2ccccc21 [SERTRALINE]

Row | SMILES | Bacterial Biotransformation
60 | O=C(O)CCC(=O)O.O=C(O[C@H]1CN2CCC1CC2)N1CCc2ccccc2[C@@H]1c1ccccc1 [SOLIFENACIN SUCCINATE] | Compound NOT metabolized
